ChEMBL document CHEMBL1201862, “PubChem BioAssay data set” (2004)
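Dose response: 5 concentrations. Exposure: 48 h. Format: 96-well plates. Endpoint: linear interpolation; highest concentration if not reached. Abbreviation: GI50, concentration required for 50% inhibition of growth.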 Activity calls are given as the source filed them. Rule as the data show it: active = GI50 up to about 1.1 µM and inactive = higher.

What was measured:
Experiment in all cases: NCI anticancer screen, dose series, 48 h
[1] = system: A498
[2] = system: A549
[3] = system: ACHN
[4] = system: CCRF-CEM
[5] = system: DMS-114
[6] = system: DMS-273
[7] = system: EKVX
[8] = system: HCT-116
[9] = system: HL-60
[10] = system: HOP-62
[11] = system: HOP-92
[12] = system: HT-29
[13] = system: IGROV-1
[14] = system: K562
[15] = system: KM12
[16] = system: M14
[17] = system: M19-MEL
[18] = system: MOLT-4
[19] = system: NCI-H23
[20] = system: NCI-H460
[21] = system: NCI-H522
[22] = system: OVCAR-5
[23] = system: OVCAR-8
[24] = system: RXF 393
[25] = system: RXF 631
[26] = system: SF-268
[27] = system: SF-295
[28] = system: SK-MEL-28
[29] = system: SK-OV-3
[30] = system: SNB-19
[31] = system: SR
[32] = system: TK-10
[33] = system: U-251
[34] = system: UACC-257
[35] = system: UACC-62
[36] = system: UO-31
[37] = system: 786-0
[38] = system: BT-549
[39] = system: CAKI-1
[40] = system: COLO 205
[41] = system: DLD-1
[42] = system: DU-145
[43] = system: HCC 2998
[44] = system: HCT-15
[45] = system: HOP-18
[46] = system: Hs-578T
[47] = system: KM-20L2
[48] = system: LOX IMVI
[49] = system: LXFL 529
[50] = system: MCF7
[51] = system: MDA-MB-231
[52] = system: MDA-MB-435
[53] = system: MDA-N
[54] = system: Malme-3M
[55] = system: NCI/ADR-RES
[56] = system: OVCAR-3
[57] = system: OVCAR-4
[58] = system: PC-3
[59] = system: RPMI-8226
[60] = system: SF-539
[61] = system: SK-MEL-2
[62] = system: SK-MEL-5
[63] = system: SN12C
[64] = system: SNB-75
[65] = system: SNB-78
[66] = system: SW-620
[67] = system: T47D
[68] = system: XF498
[69] = system: NCI-H226

c1ccc(-c2nc3sccn3n2)cc1
GI50 [1]: > 100 µM (inactive)
GI50 [2]: > 100 µM (inactive)
GI50 [3]: > 100 µM (inactive)
GI50 [4]: > 100 µM (inactive)
GI50 [5]: > 100 µM (inactive)
GI50 [6]: > 100 µM (inactive)
GI50 [7]: > 100 µM (inactive)
GI50 [8]: > 100 µM (inactive)
GI50 [9]: > 100 µM (inactive)
GI50 [10]: > 100 µM (inactive)
GI50 [11]: 74.3 µM (inactive)
GI50 [12]: > 100 µM (inactive)
GI50 [13]: > 100 µM (inactive)
GI50 [14]: > 100 µM (inactive)
GI50 [15]: > 100 µM (inactive)
GI50 [16]: > 100 µM (inactive)
GI50 [17]: > 100 µM (inactive)
GI50 [18]: > 100 µM (inactive)
GI50 [19]: > 100 µM (inactive)
GI50 [20]: > 100 µM (inactive)
GI50 [21]: > 100 µM (inactive)
GI50 [22]: > 100 µM (inactive)
GI50 [23]: > 100 µM (inactive)
GI50 [24]: > 100 µM (inactive)
GI50 [25]: > 100 µM (inactive)
GI50 [26]: > 100 µM (inactive)
GI50 [27]: > 100 µM (inactive)
GI50 [28]: > 100 µM (inactive)
GI50 [29]: > 100 µM (inactive)
GI50 [30]: > 100 µM (inactive)
GI50 [31]: > 100 µM (inactive)
GI50 [32]: > 100 µM (inactive)
GI50 [33]: > 100 µM (inactive)
GI50 [34]: > 100 µM (inactive)
GI50 [35]: > 100 µM (inactive)
GI50 [36]: > 100 µM (inactive)

O=C1C(O)=C(CC=C(Cl)Cl)C(=O)c2ccccc21
GI50 [37]: 6.17 µM (inactive)
GI50 [1]: 30 µM (inactive)
GI50 [2]: 4.44 µM (inactive)
GI50 [3]: 12.3 µM (inactive)
GI50 [38]: 18.3 µM (inactive)
GI50 [39]: 23.1 µM (inactive)
GI50 [4]: 2.82 µM (inactive)
GI50 [40]: 19.5 µM (inactive)
GI50 [41]: 1.65 µM (inactive)
GI50 [5]: 18 µM (inactive)
GI50 [6]: 2.04 µM (inactive)
GI50 [42]: 23.8 µM (inactive)
GI50 [7]: 42.3 µM (inactive)
GI50 [43]: 28 µM (inactive)
GI50 [8]: 1.36 µM (inactive)
GI50 [44]: 0.757 µM
GI50 [9]: 2.07 µM (inactive)
GI50 [45]: 25.4 µM (inactive)
GI50 [10]: 12.4 µM (inactive)
GI50 [11]: 43 µM (inactive)
GI50 [12]: 4.6 µM (inactive)
GI50 [46]: 42.4 µM (inactive)
GI50 [13]: 6.5 µM (inactive)
GI50 [14]: 1.82 µM (inactive)
GI50 [47]: 9.42 µM (inactive)
GI50 [15]: 6.46 µM (inactive)
GI50 [48]: 2.23 µM (inactive)
GI50 [49]: 2.38 µM (inactive)
GI50 [16]: 12.6 µM (inactive)
GI50 [17]: 7.64 µM (inactive)
GI50 [50]: 8.87 µM (inactive)
GI50 [51]: 15.1 µM (inactive)
GI50 [52]: 11 µM (inactive)
GI50 [53]: 16.4 µM (inactive)
GI50 [18]: 1.46 µM (inactive)
GI50 [54]: 10.8 µM (inactive)
GI50 [19]: 27.9 µM (inactive)
GI50 [20]: 1.45 µM (inactive)
GI50 [21]: 14 µM (inactive)
GI50 [55]: 19.1 µM (inactive)
GI50 [56]: 13.5 µM (inactive)
GI50 [57]: 21.7 µM (inactive)
GI50 [22]: 47.5 µM (inactive)
GI50 [23]: 5.48 µM (inactive)
GI50 [58]: 10.9 µM (inactive)
GI50 [59]: 2.28 µM (inactive)
GI50 [24]: 28.7 µM (inactive)
GI50 [26]: 11.7 µM (inactive)
GI50 [60]: 10 µM (inactive)
GI50 [28]: 23.4 µM (inactive)
GI50 [61]: 17.7 µM (inactive)
GI50 [62]: 8 µM (inactive)
GI50 [29]: 41.6 µM (inactive)
GI50 [63]: 12.9 µM (inactive)
GI50 [30]: 11 µM (inactive)
GI50 [64]: 50.6 µM (inactive)
GI50 [65]: 21.9 µM (inactive)
GI50 [31]: 1.08 µM (active)
GI50 [66]: 8.93 µM (inactive)
GI50 [67]: 38.5 µM (inactive)
GI50 [32]: 38.9 µM (inactive)
GI50 [33]: 2.62 µM (inactive)
GI50 [34]: 15.1 µM (inactive)
GI50 [35]: 4.91 µM (inactive)
GI50 [36]: 20.7 µM (inactive)
GI50 [68]: 32.3 µM (inactive)

Nc1nc2c3c(ncn3CC(O)CO2)n1 (centres undefined)
GI50 [37]: > 100 µM (inactive)
GI50 [1]: > 100 µM (inactive)
GI50 [2]: > 100 µM (inactive)
GI50 [3]: > 100 µM (inactive)
GI50 [39]: > 100 µM (inactive)
GI50 [4]: > 100 µM (inactive)
GI50 [40]: > 100 µM (inactive)
GI50 [41]: > 100 µM (inactive)
GI50 [5]: > 100 µM (inactive)
GI50 [6]: > 100 µM (inactive)
GI50 [43]: > 100 µM (inactive)
GI50 [8]: > 100 µM (inactive)
GI50 [44]: > 100 µM
GI50 [9]: > 100 µM (inactive)
GI50 [45]: > 100 µM (inactive)
GI50 [10]: > 100 µM (inactive)
GI50 [11]: > 100 µM (inactive)
GI50 [12]: 7.6 µM (inactive)
GI50 [13]: > 100 µM (inactive)
GI50 [14]: > 100 µM (inactive)
GI50 [47]: > 100 µM (inactive)
GI50 [15]: > 100 µM (inactive)
GI50 [48]: > 100 µM (inactive)
GI50 [49]: > 100 µM (inactive)
GI50 [16]: > 100 µM (inactive)
GI50 [17]: 6.31 µM (inactive)
GI50 [18]: > 100 µM (inactive)
GI50 [54]: > 100 µM (inactive)
GI50 [69]: > 100 µM (inactive)
GI50 [19]: > 100 µM (inactive)
GI50 [20]: > 100 µM (inactive)
GI50 [21]: > 100 µM (inactive)
GI50 [56]: > 100 µM (inactive)
GI50 [57]: > 100 µM (inactive)
GI50 [22]: > 100 µM (inactive)
GI50 [23]: > 100 µM (inactive)
GI50 [59]: > 100 µM (inactive)
GI50 [24]: > 100 µM (inactive)
GI50 [25]: > 100 µM (inactive)
GI50 [26]: > 100 µM (inactive)
GI50 [27]: > 100 µM (inactive)
GI50 [60]: > 100 µM (inactive)
GI50 [28]: > 100 µM (inactive)
GI50 [61]: > 100 µM (inactive)
GI50 [62]: > 100 µM (inactive)
GI50 [29]: > 100 µM (inactive)
GI50 [63]: > 100 µM (inactive)
GI50 [30]: > 100 µM (inactive)
GI50 [64]: 10.8 µM (inactive)
GI50 [65]: > 100 µM (inactive)
GI50 [31]: > 100 µM (inactive)
GI50 [66]: > 100 µM (inactive)
GI50 [32]: > 100 µM (inactive)
GI50 [33]: > 100 µM (inactive)
GI50 [34]: > 100 µM (inactive)
GI50 [35]: > 100 µM (inactive)
GI50 [36]: > 100 µM (inactive)
